From patent US20250290099A1, “MATERIALS AND METHODS FOR TARGETED GENETIC MANIPULATIONS IN CELLS” (The Regents of the University of California, priority 2021, published 2025)

What was measured:
CTLA4 protein = assay: CTLA4 gRNA screen: protein disruption by CTLA4 flow cytometric analysis; format: cell-based, human; details: activated CD4+ T cells, flow cytometry
Experimental: Flow Cytometry. All flow cytometry was performed on an Attune NxT flow cytometer with a 96-well autosampler (Thermo Fisher Scientific). Unless otherwise indicated, cells were collected 3-5 days post-electroporation, resuspended in FACS buffer (1%-2% BSA in PBS) and stained with Ghost Dye red 780 (Tonbo) and the indicated cell-surface and intracellular markers (see Table 2 for antibodies). For intracellular staining, cells were stained for surface markers and then prepared for intracellular staining using True-Nuclear Transcription Factor staining kits (Biolegend). […] Analysis was done using FlowJo v10 software. All gating strategies included exclusion of subcellular debris, singlet gating, and live:dead stain. Final graphs were produced with Prism (GraphPad), and figures were compiled with Illustrator (Adobe).
(§1) As a further example, we examined an ORF insertion within the CTLA4 gene (FIG. 8E). CTLA4 deficiency is caused most frequently by a haploinsufficiency with a disease-causing mutation on only 1 of 2 alleles. Exon-targeting strategies generate indels which could disrupt the normal allele and worsen disease. To avoid this possibility, we screened a panel of gRNA in intron 1, set forth in Table 3, to identify targets which cut efficiently without disrupting protein expression (FIG. 7B).

CTLA4 gene = assay: CTLA4 gRNA screen: cutting efficiency by TIDE indel analysis; format: cell-based, human; details: TIDE indel analysis at target locus
Text: as §1

primary human T cells [1] = assay: CD5-HA knock-in with short ssDNA HDRT, knock-in efficiency by flow cytometry; format: cell-based; details: short ssDNA CD5-HA knock-in construct, optimal concentrations, inhibitors for 24 hours after electroporation
Text: (a) Evaluation of relative increase in % knock-in using an ssDNA CD5-HA knock-in construct over varied concentrations of 5 different small molecule inhibitors assessed by flow cytometry. […] (b) Comparison of relative % knock-in (top) and live cell counts (bottom) with small molecule inhibitor combinations. […] Panel a, b, and d were each performed with T cells from 2 independent healthy human blood donors. […] Error bars indicate standard deviation. CTS=Cas9 Target Site, HDRT=homology-directed-repair template, dsCTS=dsDNA+CTS HDRT, ssCTS=ssDNA+CTS HDRT, TSA=Trichostatin A, HDR Enhancer=IDT Alt-R HDR Enhancer, MT=M3814+TSA, MTX=M3814+TSA+XL413.
(§2) Trichostatin A (TSA) (Cayman Chemical), Nedisertib (M3814) (MedKoo Biosciences), XL413 hydrochloride (XL413) (Fisher Scientific), NU7441 (Fisher Scientific), and Alt-R HDR enhancer (IDT) were prepared and stored as aliquots per manufacturer guidelines. For experiments using small molecule inhibitors, cells were incubated with the indicated concentrations upon addition of fresh growth media following the 15 minute rescue step, and removed by media exchange after 24 hours.

primary human T cells [2] = assay: Live cell counts after electroporation with small molecule inhibitors; format: cell-based
Experimental: (d) Evaluation of live cell counts with MT and MTX inhibitor combinations using 44 different knock-in constructs targeting a tNGFR marker across 22 different target loci with 2 gRNA per gene (g1 and g2). Panel a, b, and d were each performed with T cells from 2 independent healthy human blood donors. Panel c was performed with T cells from 4-6 independent healthy human blood donors. Error bars indicate standard deviation. CTS=Cas9 Target Site, HDRT=homology-directed-repair template, dsCTS=dsDNA+CTS HDRT, ssCTS=ssDNA+CTS HDRT, TSA=Trichostatin A, HDR Enhancer=IDT Alt-R HDR Enhancer, MT=M3814+TSA, MTX=M3814+TSA+XL413.
as §2

IL2RA = assay: TIDE indel analysis, RNPs targeting exon 1 of IL2RA +/- M3814 and TSA; format: cell-based, human; details: with addition of M3814 and TSA
Experimental: Media was refreshed after 24 hours in all samples, and cells were resuspended in growth media and IL-2. Six days after electroporations, genomic DNA was isolated from samples and amplicons were generated using PCR. Amplicons were sequenced and analyzed using TIDE (Tracking of Indels by Decomposition) to determine distinct changes in indel spectrums.

CD5 target locus = assay: Amplicon sequencing of the CD5 target locus, repair outcomes; format: cell-based, human; details: small CD5-HA templates
Text: We further examined repair outcomes at the genetic level by amplicon sequencing of the CD5 target locus with different versions of the small CD5-HA templates and inhibitor cocktails. […] The ratio of perfect:imperfect HDR events was also similar across the different types of templates. Intriguingly, […] […] Inclusion of HDR templates was associated with preferential reduction in the larger deletions characteristic of MMEJ (while smaller indels characteristic of NHEJ were more refractory in the absence of DNA-PK inhibition), in agreement with recent reports.

primary human T cells [3] = format: cell-based; details: ssCTS tNGFR template +/- MT and MTX
Text: (a) Knock-in efficiencies for constructs targeting a tNGFR marker to 22 different target genome loci. (b-d) Comparison of large ssDNA and dsDNA HDRTs with CTS sites for knock-in of a pooled library of 2.6-3.6 kb polycistronic constructs targeted to the TRAC locus. Shown for each HDRT variation is (b) relative % knock-in in comparison to maximum for dsDNA+CTS templates, (c) relative knock-in cell count yields in comparison to maximum for dsDNA+CTS templates, and (d) representation of each library member in knock-in cells post-electroporation in comparison to construct representation the input plasmid pool. (e-g) Comparison of knock-in cell yields using ssDNA (red) and dsDNA HDRTs (blue) with CTS sites across a variety of primary human hematopoietic cell types. Note, different cell type comparisons are performed with different blood donors. All comparisons were performed using a knock-in construct generating an CLTA-mCherry fusion at the CLTA locus. Shown for each cell type using HDRT concentrations from 5-160 nM are (e) knock-in cell count yields, (f) maximum fold-change in knock-in count yields (relative to dsCTS templates), and (g) maximum % knock-in. […]
(a) Evaluation of relative increase in % knock-in using an ssDNA CD5-HA knock-in construct over varied concentrations of 5 different small molecule inhibitors assessed by flow cytometry. […]

Question: What does the source list for “G514: gRNA, CTLA4 exon 1, target sequence AGAAAAAACAGGAGAGTGCA (SEQ ID NO: 68) (listed as DNA, chemistry not given here)”?
Answer: %CTLA4 protein loss above background (CTLA4 protein): 47.45%; %indel (CTLA4 gene): 94.35%

Question: How did the “%CTLA4 protein loss above background” value (CTLA4 protein) turn out when “G520: gRNA, CTLA4 intron 1, target sequence GATATGACAAACAGAAGACC (SEQ ID NO: 4) (listed as DNA, chemistry not given here)” was run?
Answer: Its value is 0%.

Question: And the “%indel” value (CTLA4 gene)?
Answer: Its value is 72.5%.

Question: Which results are given for `Cl.O=c1[nH]c([C@@H]2CCCN2)nc2c1oc1ccc(Cl)cc12` [XL413, (S)-8-chloro-2-(pyrrolidin-2-yl)benzofuro[3,2-d]pyrimidin-4(3H)-one hydrochloride]?
Answer: increase in knock-in efficiency (primary human T cells [1]): ~46%; reduction in cell counts (primary human T cells [2]; Day 11): ~20%; reduction in cell counts (primary human T cells [2]; day 4 post-electroporation): ~50%

Question: For “G519: gRNA, CTLA4 intron 1, target sequence ACATATTTCATGGTAGAGCC (SEQ ID NO: 73) (listed as DNA, chemistry not given here)”, which “%CTLA4 protein loss above background” value (CTLA4 protein) is on record?
Answer: The value was 0%.

Question: And the “%indel” value (CTLA4 gene)?
Answer: The value was 89.65%.

Question: `CC(/C=C/C(=O)NO)=C\[C@@H](C)C(=O)c1ccc(N(C)C)cc1` [TSA, [R-(E,E)]-7-[4-(dimethylamino)phenyl]-N-hydroxy-4,6-dimethyl-7-oxo-2,4-heptadienamide] was tested. Which “increase in knock-in efficiency” value (primary human T cells [1]) did it give?
Answer: Its value is roughly 16%.

Question: With “G517: gRNA, CTLA4 intron 1, target sequence CTCTGAAGAGCTGAAAACTG (SEQ ID NO: 71) (listed as DNA, chemistry not given here)” as the compound, how does the “%CTLA4 protein loss above background” value (CTLA4 protein) read?
Answer: Its value is 0%.

Question: What about the “%indel” value (CTLA4 gene) of the same compound?
Answer: Its value is 80.35%.

Question: Which cutting efficiency (IL2RA) does the source give for “G377: crRNA/gRNA targeting IL2RA, TGAGCAGTCCCCACATCAGC (SEQ ID NO: 13) (listed as DNA, chemistry not given here)” here?
Answer: Its cutting efficiency is “not impacted”.

Question: With “G509: gRNA, CTLA4 exon 1, target sequence CCTTGTGCCGCTGAAATCCA (SEQ ID NO: 63) (listed as DNA, chemistry not given here)” as the compound, how does the “%CTLA4 protein loss above background” value (CTLA4 protein) read?
Answer: The value was 39.2%.

Question: And the “%indel” value (CTLA4 gene)?
Answer: The value was 78.2%.

Question: For “G510: gRNA, CTLA4 exon 1, target sequence CCTTGGATTTCAGCGGCACA (SEQ ID NO: 64) (listed as DNA, chemistry not given here)”, which “%CTLA4 protein loss above background” value (CTLA4 protein) is on record?
Answer: The value was 16.65%.

Question: And the “%indel” value (CTLA4 gene)?
Answer: Its value is 47.7%.

Question: Which “increase in knock-in efficiency” value (primary human T cells [1]) does the source give for `O=c1cc(N2CCOCC2)oc2c(-c3cccc4c3sc3ccccc34)cccc12` [NU7441, 8-(dibenzo[b,d]thiophen-4-yl)-2-morpholino-4H-chromen-4-one] here?
Answer: Its value is roughly 43%.

Question: For “G511: gRNA, CTLA4 exon 1, target sequence GCACAAGGCTCAGCTGAACC (SEQ ID NO: 65) (listed as DNA, chemistry not given here)”, which “%CTLA4 protein loss above background” value (CTLA4 protein) is on record?
Answer: The value was 32.4%.

Question: And the “%indel” value (CTLA4 gene)?
Answer: The value was 71.85%.

Question: Which “increase in knock-in efficiency” value (primary human T cells [1]) does the source give for `COc1ccc([C@@H](O)c2cc(-c3ncnc4cc(N5CCOCC5)ccc34)c(F)cc2Cl)nn1` [M3814, (S)-(2-chloro-4-fluoro-5-(7-morpholinoquinazolin-4-yl)phenyl)(6-methoxypyridazin-3-yl)methanol] here?
Answer: Its value is roughly 49%.

Question: And the “repair outcomes: frequency of indels” value (CD5 target locus)?
Answer: Its value is “decreased frequency of indels”.

Question: With “CD7 g1: gRNA targeting CD7, TCAGCTGCACTCGCCCGGCT (SEQ ID NO: 17), with corresponding tNGFR ssCTS template (listed as DNA, chemistry not given here)” as the compound, how does the “effect size of inhibitors: increase in knock-in efficiency” value (primary human T cells [3]) read?
Answer: The value was “relatively little increase”.

Question: With “G512: gRNA, CTLA4 exon 1, target sequence CTCAGCTGAACCTGGCTACC (SEQ ID NO: 66) (listed as DNA, chemistry not given here)” as the compound, how does the “%CTLA4 protein loss above background” value (CTLA4 protein) read?
Answer: Its value is 1.3%.

Question: And the “%indel” value (CTLA4 gene)?
Answer: The value was 12.15%.

Question: With “PI3KCD g2: gRNA targeting PI3KCD, TAACAACGCAGGATGCCCCC (SEQ ID NO: 38), with corresponding tNGFR ssCTS template (listed as DNA, chemistry not given here)” as the compound, how does the “effect size of inhibitors: increase in knock-in efficiency” value (primary human T cells [3]) read?
Answer: The value was “up to 7 fold”.

Question: For “G513: gRNA, CTLA4 exon 1, target sequence TGAACCTGGCTACCAGGACC (SEQ ID NO: 67) (listed as DNA, chemistry not given here)”, which “%CTLA4 protein loss above background” value (CTLA4 protein) is on record?
Answer: The value was 10.2%.

Question: And the “%indel” value (CTLA4 gene)?
Answer: Its value is 23.7%.

Question: Which “%CTLA4 protein loss above background” value (CTLA4 protein) does the source give for “G515: gRNA, CTLA4 intron 1, target sequence TTGTATGCCAAACAGACTGG (SEQ ID NO: 69) (listed as DNA, chemistry not given here)” here?
Answer: Its value is 0%.

Question: What about the “%indel” value (CTLA4 gene) of the same compound?
Answer: The value was 79.25%.

Question: Which “%CTLA4 protein loss above background” value (CTLA4 protein) does the source give for “G516: gRNA, CTLA4 intron 1, target sequence TGCATCTGAAACCCACACGT (SEQ ID NO: 70) (listed as DNA, chemistry not given here)” here?
Answer: Its value is 0%.

Question: And the “%indel” value (CTLA4 gene)?
Answer: Its value is 61.95%.
